pIC50: −log10 of the molar value.
Experiments:
[1] = system: surface-bound DNA-ligand 5′-GCCTACGC-3′; test: Hybridization of fluorescein-labeled DNA-receptor to DNA-ligand synthesized on patterned porous coating (epifluorescence); format: binding; settings: 10 μM in 6×SSPE, 1 hour at 4° C., wash at 15° C.; 10× objective, 15 seconds exposure
Experimental: Using the DNA synthesizer to automatically deliver reagents, the DNA-ligand with the sequence 5′-[…]-3′ was synthesized via eight phosphoramidite couplings on the exposed hydroxyl groups beginning with the 3′ end. Following synthesis, the reactor system was separated from the DNA synthesizer, and the phosphate and exocyclic amine protecting groups removed by manually applying 0.05 M potassium carbonate in methanol to the reactor cavity for 2 hours at room temperature. […]
The 6×SSPE solution is a high-salt buffer with a pH of 7.4 comprising 1M NaCl, 66 mM NaH2PO4/Na2HPO4, 6 mM EDTA, and 0.05° Triton X-100-™ The slide was subsequently washed in 6×SSPE at a temperature of 15° C., and mounted on a modified microscope stage attached to a Standard Epifluorescence Microscope The stage contained an aqueous gel within its interior that was chilled to approximately 4° C. prior to image acquisition. The fluorescence image of FTA hybridized to the porous coating was captured using a 35 mm camera attached to the microscope. […]
Following hybridization, the slide was washed in 6×SSPE at a temperature of 15° C. and mounted on the modified stage as described above. The fluorescence image of the FAA hybridization was captured with the 10× objective of a Standard Epifluorescence Microscope with attached 35 mm camera. […]

[2] = system: PNA-array linker-spacer-CGN1N2TCCG-NH2; test: Hybridization of fluorescein-labeled DNA-receptor to 16-element PNA-array on patterned porous coating (epifluorescence); format: binding; settings: 10 μM in 6×SSPE, 10 minutes at room temperature; 10× objective, 15 seconds exposure
Experimental: A patterned porous coating comprising a 4×4 array of 600 μm×600 μm porous squares was prepared as described in Example 19, and coupled with amino-linker molecules using the method described in Example 20. The PNA-array was then synthesized on the surface of the patterned porous coating with each array element occupying one 600 μm×600 μm porous square. Each element of the array comprised one of the 16 possible combinations of the sequence, linker-spacer-CGN1N2TCCG-NH2, where N1 and N2 may independently be A, G, C, or T. The position of each element in the array, as referenced by the N1N2 sequence, is shown in the array schematics of FIGS. 6A and 6B. […]
The fluorescence image of the porous coating was captured at room temperature using a 35 mm camera attached to a Standard Epifluorescence Microscope. The fluorescence image of FAA bound at the predicted array element is readily detected and visualized using an objective magnification of 10× and an exposure time of 15 seconds (see FIG. 6 and corresponding surface plot).
Bound FAA was dissociated from the PNA-array by immersing the slide in 90° C. water, and the hybridization repeated with FTA using conditions as described above for FAA. The fluorescence image of the FTA hybridization was captured with the 10× objective of a Standard Epifluorescence Microscope with attached 35 mm camera. […]

[3] = target: T1, angiotensin converting enzyme (ACE) (Homo sapiens, UniProt P12821); settings: as reported by Patchett et al.; read-out: IC50 (binding affinity for ACE); cited from earlier work
[4] = target: T1, angiotensin converting enzyme (ACE); test: ACE inhibitory activity, functional assay with substrate FAPGG (absorbance at 328 nm); format: biochemical; settings: 10 nM ACE, 50 μM FAPGG
Experimental: Each assay mixture contained 10 nM ACE, 50 μM FAPGG, 50 mM Tris (pH 8.3), 300 mM NaCl, and 20-40 μl of each of the above analogue solutions in a total reaction volume of 50 μl. The above mixture without analogue served as the negative control for inhibitory activity. […] Each reaction was initiated by adding 5 μl of 500 μM FAPGG to 45 μl of the remaining assay components in a 100 μl cuvette. The temporal progress of each reaction was monitored by measuring the absorbance at 328 nm every 15 seconds.
The percent ACE inhibition is expressed as the percent decrease in initial velocity relative to the initial velocity of the negative control. […] Compositions are referenced by R1 and R2 groups as defined in Table XI.

T1 sequence (P12821 30-1306, species assumed): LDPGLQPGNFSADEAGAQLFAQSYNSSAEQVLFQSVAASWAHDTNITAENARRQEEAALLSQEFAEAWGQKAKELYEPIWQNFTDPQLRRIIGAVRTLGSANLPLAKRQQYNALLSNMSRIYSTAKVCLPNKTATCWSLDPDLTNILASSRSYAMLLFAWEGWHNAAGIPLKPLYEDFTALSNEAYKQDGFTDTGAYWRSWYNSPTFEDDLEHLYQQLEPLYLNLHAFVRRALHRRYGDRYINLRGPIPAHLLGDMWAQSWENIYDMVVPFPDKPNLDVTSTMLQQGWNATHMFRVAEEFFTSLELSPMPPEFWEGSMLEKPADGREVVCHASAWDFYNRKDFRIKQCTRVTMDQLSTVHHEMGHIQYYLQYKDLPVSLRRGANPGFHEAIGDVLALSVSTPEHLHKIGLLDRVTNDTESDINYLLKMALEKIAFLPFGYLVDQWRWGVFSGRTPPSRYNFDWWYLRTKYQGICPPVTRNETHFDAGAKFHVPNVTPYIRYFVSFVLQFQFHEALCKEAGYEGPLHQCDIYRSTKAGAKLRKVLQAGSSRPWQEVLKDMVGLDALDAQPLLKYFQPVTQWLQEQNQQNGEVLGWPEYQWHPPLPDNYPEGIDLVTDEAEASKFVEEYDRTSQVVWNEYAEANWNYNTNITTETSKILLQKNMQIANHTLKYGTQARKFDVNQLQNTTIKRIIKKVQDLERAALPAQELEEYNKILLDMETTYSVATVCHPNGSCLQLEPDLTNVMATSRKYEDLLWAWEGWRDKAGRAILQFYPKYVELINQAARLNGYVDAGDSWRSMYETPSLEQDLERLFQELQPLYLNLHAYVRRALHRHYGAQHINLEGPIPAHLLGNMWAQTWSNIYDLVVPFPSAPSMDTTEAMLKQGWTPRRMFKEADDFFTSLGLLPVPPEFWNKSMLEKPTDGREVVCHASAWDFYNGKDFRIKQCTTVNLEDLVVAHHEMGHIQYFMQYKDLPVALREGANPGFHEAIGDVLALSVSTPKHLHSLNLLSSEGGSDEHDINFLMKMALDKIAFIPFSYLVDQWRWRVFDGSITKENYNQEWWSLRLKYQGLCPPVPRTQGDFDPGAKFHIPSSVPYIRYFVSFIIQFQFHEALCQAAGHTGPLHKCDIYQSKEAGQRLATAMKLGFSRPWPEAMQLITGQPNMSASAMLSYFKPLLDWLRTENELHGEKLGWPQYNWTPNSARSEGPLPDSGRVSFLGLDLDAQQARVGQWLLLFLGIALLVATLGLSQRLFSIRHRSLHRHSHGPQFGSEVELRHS

Compound: 5′-GCGTAGGC-fluorescein [FTA]
- fluorescence image of hybridized DNA-receptor [1]: readily visible
- specificity of hybridization to PNA-array [2]: hybridizes specifically to its complementary PNA sequence with little or no signal from other array elements

Compound: 5′-GCGAAGGC-fluorescein [FAA]
- fluorescence image of hybridized DNA-receptor [1]: equivalent to the images with no receptor
- specificity of hybridization to PNA-array [2]: hybridizes specifically to its complementary PNA sequence with little or no signal from other array elements

Compound: CC(NC(Cc1ccccc1)C(=O)O)C(=O)N1CCCC1C(=O)O (stereo not shown) [R1a+R2a]
- pIC50 [3]: 7.41
- percent ACE inhibition (percent decrease in initial velocity relative to the negative control) ([4]; analogue cleaved from one array element of a 1 μm thick porous coat, pH 8.3): 35%

Compound: NCCCC[C@H](N[C@@H](CCc1ccccc1)C(=O)O)C(=O)N1CCC[C@H]1C(=O)O [lisinopril]
- initial velocity ([4]; positive control, 250 nM lisinopril): zero
